Results: patent US9394318B2, “Crystal polymorph of magnesium glycinate dihydrate and process for its preparation” (Cypress Pharmaceutical, Inc., priority 2012, dated 2016)

Experiments:
[1] = 4.0 mL PBS + 20 mg binder, mixed 1 h at room temperature; hypothetical results; dihydrate
Method: Exemplary stock solutions suitable for phosphate-binding assays include the following: phosphate-binding solution (“PBS”) containing 10 mM KH2PO4, 30 mM Na2CO3, 80 mM NaCl, as described in Rosenbaum et al. Nephrol. Dial. Transplant. 12:961-964 (1997); acetate buffer (“AB”) solution containing 0.1N acetic acid, 0.025N sodium acetate, as described in Lowry & Lopez J. Biol. Chem. 162:421-428 (1946); ammonium molybdate (“AM”) solution containing 1% ammonium molybdate in 0.05N H2SO4, as described in Lowry & Lopez; ascorbic acid (“AA”) solution containing 1% ascorbic acid in H2O, as described in Lowry & Lopez.
In general, the phosphate-binding assays are conducted in 12×75 mm glass tubes. 4.0 mL PBS and 20 mg putative phosphate binder are added to a glass tube and then mixed for 1 h at room temperature. 0.1 mL supernatant is pipetted from this tube to a new test tube. 3.0 mL AB, 0.3 mL AA and 0.3 mL AM solutions are added and O.D. is measured at 700 nm after 10 minutes.
The phosphate binding capacity was calculated as follows (mcg stands for micrograms): ((O.D. of sample×95)/O.D. of standard)×40=(mcg)PO4 left in solution ((3800(mcg)PO4 left)×50)/1000=(mcg)PO4 bound per gram of phosphate binder.
The phosphate binding capacities of samples of magnesium glycinate dihydrate produced by the process of Example 1 are measured. X-ray powder diffraction is conducted on each of the samples to verify that they consist of the polymorph described in Example 2.

[2] = as described in the '012 application, cited from earlier work

Molecule	PO4 binding [1]	other results
O=C1C[NH][Mg]2([OH])([OH])([NH]CC(=O)[O]2)[O]1 [Sample 1, magnesium glycinate dihydrate]	175.0 mg/g	
O=C1C[NH][Mg]2([OH])([OH])([NH]CC(=O)[O]2)[O]1 [Sample 2, magnesium glycinate dihydrate]	177.0 mg/g	
O=C1C[NH][Mg]2([OH])([OH])([NH]CC(=O)[O]2)[O]1 [Sample 3, magnesium glycinate dihydrate]	176.2 mg/g	
O=C1C[NH][Mg]2([OH])([OH])([NH]CC(=O)[O]2)[O]1 [Sample 4, magnesium glycinate dihydrate]	178.1 mg/g	
[Cl-].[Cl-].[Mg+2] [magnesium chloride]		ability to bind phosphate ([2]; formed from magnesium glycinate and stomach acid (HCl)): does not have the ability to bind phosphate in appreciable quantities
magnesium glycinate [magnesium glycinate salt]		ability to bind phosphate per gram ([2]; in vitro phosphate binding assay): at least 50 mg phosphate per gram
